One data set relates to WNV replicon. The experiment in a line: WNV replicon luciferase assay in BHK 26.5 cells (HTS, re-test, IC50). Format: cell-based, West Nile virus. The note with it: for IC50: West Nile virus, 24 h; for Fold decrease (HTS) / Fold decrease (Re-test): luciferase activity; for Fold decrease (HTS): 10 μM compound, 24 hours, BHK 26.5 cells; for Fold decrease (Re-test): re-checked at a single 10 μM concentration. As for the experimental part:
Ten micromolar concentrations of a selected compound were incubated with BHK 26.5 cells expressing luciferase whose activity is dependent upon WNV replicon replication (FIG. 1A). Primary “hits” were defined by the ability to reduce the amount of luciferase enzyme activity by more than 50%, compared to controls.
To quantify and rank the activity of the 23 remaining compound “hits”, a serial dilution of each compound was incubated with WNV replicon cells to determine the concentration that inhibits 50% of the luciferase readout (IC50s). […] A number of compounds had significant effect only at the highest, 10 μM concentration. However, several compounds had IC50s between 2 and 5 (Table 3), which is very reasonable for primary HTS hits from a compound library. Only a few compounds could cause 90% inhibition in the replicon cells at the concentrations tested.
(§1) Replicon-harboring cells were plated 96-well plates at 10,000 cells per well in MEM plus 3% FBS. 24 hours after plating, compounds were added to the wells by a Robotic liquid handler (Biomek NX) to a final concentration of 10 μM and 1% DMSO. For each 96 well plate, A1 to A8 were left open, H1 to H4 contained 1% DMSO, H5-H8 contained Mycophenolic acid (Sigma-Aldrich, St. Louis, Mo.), which was included as positive controls. After 24 hours of treatment, the media were removed and the luciferase activity expressed in the replicon cells was quantified. When cyto-toxicity was measured, duplicate 96 well plates were plated with BHK 26.5 replicon cells. One plate was used for luciferase assay and one plate was used for measuring toxicity using MTT assay.
Luciferase assay was performed by using the STEADY GLO reagent (Promega Corp. Madison, Wis.) according to the manufacturer's recommendation with slight modifications. Briefly, the culture media from the 96 wells were removed by dumping on paper towels.
100 μl of a 1:1 mixture of luciferase regent and culture media were added to the plate. After 5-minute incubation, the luminescence was read on a TOPCOUNT (PerkinElmer, Wellesley, Mass.).
On the technique in general: In antiviral work, replicon cells carry a viral genome segment that copies itself.

The next data set has as its system BHK 26.5 replicon cells. The experiment in a line: MTT toxicity assay on BHK 26.5 replicon cells. The class given is cell-based. To be noted: MTT assay.
Text: The HTS strategy follows the flowchart outlined in FIG. 2. 35,000 compounds were screened from a chemical library described below, using a cutoff of 50% reduction in luminescence readout as the criteria for further study. Upon completion of the screen, approximately 1100 compounds were selected, making the hit rate of 3%. This is considerably higher than expected, implying many false positive and/or cytotoxic compounds. Nevertheless, the compounds were picked out from the “daughter” plates and re-checked at a single 10 μM concentration. In addition, a duplicate 96 well plates were also plated and the toxicity of the compounds was determined in an MTT assay. Upon completion of these assays, most compounds were disqualified as either false positives or being toxicity to cells. As a result, only a small number of compounds were further analyzed directly from the “mother” plate stock. After IC50 determination and secondary assay to rule out luciferase inhibitors, 23 “hits” were identified.
as §1
Compound toxicity was determined by MTT assay. For the MTT assay, the cell medium was removed and the monolayers were incubated with 100 μl/well of 0.5 mg/ml MTT for 6 h at 37° C. The MTT solution was then aspirated and 100 μl/well of the 10% SDS (in 0.01N HCl) was added, followed by spectrophotometric quantitation (570 nm) of the insoluble MIT reaction product.
(In general: Tetrazolium assays rely on reduction of a dye to a coloured formazan, in cell work by metabolically active cells.)

Another data set has as its system WNV. The experiment in a line: WNV yield reduction assay (live virus) on BHK cells. The class given is cell-based, West Nile virus. The note with it: live WNV. As for the experimental part: The antiviral assay for the 309-F6 compounds was conducted on BHK cells. The virus produced in the presence of 1% DMSO or various concentrations of compounds was tittered on Vero cells. The amount of virus relative to the 1% DMSO control was plotted on the y-axis; the concentration of the compound 309F6 is shown in μM on the x-axis. Data from two independently treated wells (Test 1 and Test 2) are shown.
To measure activity against live WNV, BHK cells were plated in 96-well plates at a concentration of 12,000 cells/well. One day later the cells were infected with WNV for 1 h at an MOI of 0.05. The cells were then washed once and re-fed with fresh DMEM containing dilutions of the test compound. Plates were then incubated at 37° C. for 48 h, the supernatant collected and the WNV produced titered. For virus titration, Vero cells were plated in 96-well plates at 8000 cells/well and incubated overnight. The Vero cell monolayer were then infected for 1 h with various dilutions of the WNV supernatant, overlaid with media containing 0.6% tragacanth (ICN, CA) and incubated at 37° C. for 48 h. The culture media was then aspirated; the plate was rinsed, air-dried, and fixed with 50 μl/well acetone/methanol (50:50). Viral foci were detected for enumeration by immunostaining as described previously (15).

What is called IC50 is the point on the concentration scale where inhibition reaches its midpoint. A lower IC50 goes with higher potency. On to `NC(=O)CCS(=O)(=O)c1ccc(Cl)cc1` [Compound 2-H7, 3-(4-Chloro-benzenesulfonyl)-propionamide], for which, in the data set with WNV replicon, the half-maximal inhibitory concentration (IC50) is 2.5 µM, the “Fold decrease (HTS)” value was 4.5 Fold and the “Fold decrease (Re-test)” value is given as 2.5 Fold. Besides, in the data set on BHK 26.5 replicon cells, the “Toxicity (uM)*” value is more than 20 µM.
The corresponding values for `Cc1cccc(-n2nc3c(c2NC(=O)c2ccc(S(=O)(=O)N4CCCCC4)cc2)CSC3)c1` [Compound 18-H5, 4-(Piperidine-1-sulfonyl)-N-(2-m-tolyl-2,6-dihydro-4H-thieno[3,4-c]pyrazol-3-yl)-benzamide] are 7.5 µM, 2 Fold, 2 Fold and more than 30 µM.
On to `Cc1ccc(-n2nc3c(c2NC(=O)C2CC2)CSC3)c(C)c1` [Compound 20-E7, Cyclopropanecarboxylic acid [2-(2,4-dimethyl-phenyl)-2,6-dihydro-4H-thieno[3,4-c]pyrazol-3-yl]-amide], for which, in the data set on WNV replicon, it took 10 µM to reach half-maximal inhibition (IC50), the “Fold decrease (HTS)” value amounted to 2.3 Fold and the “Fold decrease (Re-test)” value came out at 2.4 Fold. Moreover, in the data set on BHK 26.5 replicon cells, the “Toxicity (uM)*” value was more than 10 µM.
`O=C1Nc2ccc(S(=O)(=O)Nc3cc(Cl)ccc3Cl)c3cccc1c23` [Compound 24-C10, 2-Oxo-1,2-dihydro-benzo[cd]indole-6-sulfonic acid (2,5-dichloro-phenyl)-amide]: in the data set with WNV replicon, the midpoint of inhibition, the IC50, lay at 10 µM; the “Fold decrease (HTS)” value is 2.5 Fold; the “Fold decrease (Re-test)” value is 1.8 Fold. Also, in the data set with BHK 26.5 replicon cells, the “Toxicity (uM)*” value is more than 10 µM.
Turning to `Cc1ccc(S(=O)(=O)N2Cc3ccccc3CC2C(=O)Nc2ccc(Cl)cc2)cc1` (stereo not drawn) [Compound 42-E5, 2-(Toluene-4-sulfonyl)-1,2,3,4-tetrahydro-isoquinoline-3-carboxylic acid(4-chloro-phenyl)-amide], in the data set on WNV replicon, the IC50 stood at 7.5 µM, the “Fold decrease (HTS)” value came out at 7 Fold and the “Fold decrease (Re-test)” value is recorded as 1.7 Fold. Further, the “Toxicity (uM)*” value in the data set with BHK 26.5 replicon cells is more than 10 µM.
`Cc1cc(C)c2nc(NC3=NC(c4ccccc4)CC(=O)N3)nc(C)c2c1` (stereo not drawn) [Compound 50-A8, 6-Phenyl-2-(4,6,8-trimethyl-quinazolin-2-ylamino)-5,6-dihydro-3H-pyrimidin-4-one]: in the data set with WNV replicon, 5 µM corresponded to half-maximal inhibition (IC50), the “Fold decrease (HTS)” value came to 4.5 Fold and the “Fold decrease (Re-test)” value is listed as 2.3 Fold. Moreover, the “Toxicity (uM)*” value with BHK 26.5 replicon cells was more than 10 µM.
In the case of `CCOC(=O)c1cnc2ccc(OCC)cc2c1NCc1ccccc1` [Compound 63-C10, 4-Benzylamino-6-ethoxy-quinoline-3-carboxylic acid ethyl ester], in the data set with WNV replicon, the IC50 turned out to be 5 µM and the “Fold decrease (HTS)” value is 3.5 Fold. For the same molecule, in the data set on BHK 26.5 replicon cells, the “Toxicity (uM)*” value is more than 20 µM.
Turning to `CC1CC(C)CN(S(=O)(=O)c2ccc(C3CCCCC3)cc2)C1` (stereo not drawn) [Compound 182-C2, 1-(4-Cyclohexyl-benzenesulfonyl)-3,5-dimethyl-piperidine], in the data set with WNV replicon, the “Fold decrease (HTS)” value is on record as 5 Fold and the “Fold decrease (Re-test)” value is 1.4 Fold. For the same molecule, the “Toxicity (uM)*” value with BHK 26.5 replicon cells is more than 10 µM.
In the case of `CCc1cccc(NC(=O)C(Cc2ccccc2)NS(=O)(=O)c2cccs2)c1` (stereo not drawn) [Compound 207-E5, N-(3-Ethyl-phenyl)-3-phenyl-2-(thiophene-2-sulfonylamino)-propionamide], in the data set on WNV replicon, the IC50 amounted to 10 µM, the “Fold decrease (HTS)” value came to 5 Fold and the “Fold decrease (Re-test)” value is given as 2 Fold. For the same molecule, the “Toxicity (uM)*” value in the data set with BHK 26.5 replicon cells is more than 10 µM.
For the molecule `COc1cc(OC)cc(C(=O)Nc2c3c(nn2-c2cccc(Cl)c2)CSC3)c1` [Compound 253-B10, N-[2-(3-Chloro-phenyl)-2,6-dihydro-4H-thieno[3,4-c]pyrazol-3-yl]-3,5-dimethoxy-benzamide], in the data set with WNV replicon, the IC50 was found to be 3 µM, the “Fold decrease (HTS)” value was 2 Fold and the “Fold decrease (Re-test)” value is recorded as 2 Fold. In addition, the “Toxicity (uM)*” value in the data set on BHK 26.5 replicon cells was more than 30 µM.
For the molecule `COc1ccc(-n2nc3c(c2NC(=O)c2ccc(OC(C)C)cc2)CSC3)cc1` [Compound 253-F8, 4-Isopropoxy-N-[2-(4-methoxy-phenyl)-2,6-dihydro-4H-thieno[3,4-c]pyrazol-3-yl]-benzamide], in the data set on WNV replicon, the IC50 worked out at 10 µM, the “Fold decrease (HTS)” value is listed as 2.5 Fold and the “Fold decrease (Re-test)” value worked out at 2 Fold. Further, the “Toxicity (uM)*” value with BHK 26.5 replicon cells is more than 30 µM.
For the molecule `O=C(Nc1c2c(nn1-c1ccc(F)cc1)CSC2)c1ccc2c(c1)OCO2` [Compound 253-F11, Benzo[1,3]dioxole-5-carboxylic acid [2-(4-fluoro-phenyl)-2,6-dihydro-4H-thieno[3,4-c]pyrazol-3-yl]-amide], in the data set with WNV replicon, the half-inhibitory concentration (IC50) was found to be 10 µM, the “Fold decrease (HTS)” value turned out to be 3 Fold and the “Fold decrease (Re-test)” value was 2 Fold. Also, in the data set with BHK 26.5 replicon cells, the “Toxicity (uM)*” value is more than 30 µM.
Take `COc1ccc(-n2nc3c(c2NC(=O)c2ccc4c(c2)OCO4)CSC3)cc1` [Compound 253-G8, Benzo[1,3]dioxole-5-carboxylic acid [2-(4-methoxy-phenyl)-2,6-dihydro-4H-thieno[3,4-c]pyrazol-3-yl]-amide]: in the data set on WNV replicon, inhibition was half-maximal at 2.5 µM (IC50), the “Fold decrease (HTS)” value was 2 Fold and the “Fold decrease (Re-test)” value was 2 Fold. Also, the “Toxicity (uM)*” value with BHK 26.5 replicon cells is more than 30 µM.
As for `CCOc1ccc(C(=O)Nc2c3c(nn2-c2ccc(OC)cc2)CSC3)cc1OCC` [Compound 253-H8, 3,4-Diethoxy-N-[2-(4-methoxy-phenyl)-2,6-dihydro-4H-thieno[3,4-c]pyrazol-3-yl]-benzamide], in the data set on WNV replicon, the IC50 was determined as 10 µM, the “Fold decrease (HTS)” value is listed as 2 Fold and the “Fold decrease (Re-test)” value is reported as 1.5 Fold. In the data set on BHK 26.5 replicon cells, the “Toxicity (uM)*” value is more than 30 µM.
Regarding `CCC(C)NC(=O)c1cnn2c(O)c(Cc3ccccc3Cl)c(C)nc12` (stereo not drawn) [Compound 275-D9, 6-(2-Chloro-benzyl)-7-hydroxy-5-methyl-pyrazolo[1,5-a]pyrimidine-3-carboxylic acid sec-butylamide], in the data set on WNV replicon, 7.5 µM corresponded to half-maximal inhibition (IC50), the “Fold decrease (HTS)” value worked out at 10 Fold and the “Fold decrease (Re-test)” value is recorded as 2.9 Fold. For the same molecule, the “activity in the WNV infection assay” value in the data set with WNV is “no detectable activity”. In the data set with BHK 26.5 replicon cells, the “Toxicity (uM)*” value is more than 10 µM.
On to `COc1ccc(CCC(=O)Nc2ccc(C(=N)NO)cc2)cc1` [Compound 331-E11, N-[4-(N-Hydroxycarbamimidoyl)-phenyl]-3-(4-methoxy-phenyl)-propionamide], for which, in the data set on WNV replicon, the half-inhibitory concentration (IC50) was found to be 5 µM, the “Fold decrease (HTS)” value came out at 3 Fold and the “Fold decrease (Re-test)” value is on record as 1.5 Fold. In addition, in the data set with BHK 26.5 replicon cells, the “Toxicity (uM)*” value was more than 30 µM.
